# Measurements taken from paper PMC10802846 (Cell chemical biology, 2023).
# “Also recorded” adds a separate entry of the source. Where two headings read alike, the source gives them in different places. Residues, ends and D or L forms follow the SMILES beside them. *: point of attachment. Cbz = O=C(OCc1ccccc1)*
# Columns and labels:
# MDA-MB-231 cells = assay: RNA-seq differential gene expression; assay type: cell-based, human; conditions: for number of downregulated genes / number of upregulated genes: 24 h, fold-change≥|2|, p ≤ 0.01
# HDAC3 = HDAC3 (Homo sapiens, UniProt O15379+P40337); assay: HDAC3 degradation by Western blot in MDA-MB-231 cells; assay type: cell-based
# HDAC8 [1] = target: T1, HDAC8 (Homo sapiens, UniProt Q9BY41); assay: HDAC8 degradation by Western blot in MDA-MB-231 cells; assay type: cell-based
# T1 sequence (Q9BY41 1-377): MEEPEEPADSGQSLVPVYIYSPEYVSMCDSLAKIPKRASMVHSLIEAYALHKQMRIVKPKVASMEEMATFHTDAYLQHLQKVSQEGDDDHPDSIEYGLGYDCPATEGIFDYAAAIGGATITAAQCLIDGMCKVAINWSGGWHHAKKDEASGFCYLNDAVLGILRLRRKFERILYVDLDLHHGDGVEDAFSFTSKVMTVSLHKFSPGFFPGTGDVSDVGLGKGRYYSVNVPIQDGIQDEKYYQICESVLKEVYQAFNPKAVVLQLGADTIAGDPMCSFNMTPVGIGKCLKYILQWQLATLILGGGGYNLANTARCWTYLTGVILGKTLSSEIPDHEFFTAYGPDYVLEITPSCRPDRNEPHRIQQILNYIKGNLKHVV
# caspase 3 (CASP3) = assay: CASP3 cleavage; assay type: cell-based, human; conditions: MDA-MB-231, 16 h
# HDAC1/3/8 = HDAC1/3/8 inhibitory activity in vitro, statements across the three isozymes; assay type: biochemical; conditions: for HDAC1/3/8 inhibitory potency and selectivity: warhead analogues
# HDAC1 [2] = target: T2, HDAC1 (Homo sapiens, UniProt Q13547); assay: HDAC activity assay; assay type: biochemical
# HDAC1 [3] = target: T2, HDAC1; assay: HDAC1 protein level by Western blot in MCF7 and MDA-MB-231 cells; assay type: cell-based
# HDAC2 = HDAC2 (Homo sapiens, UniProt Q92769); assay: HDAC2 protein level by Western blot in MCF7 and MDA-MB-231 cells; assay type: cell-based
# [4] = target: HDAC1 and the VHL complex (Homo sapiens, UniProt Q13547); assay: AlphaLISA ternary complex formation, HDAC1; assay type: binding; conditions: broad range of YX968 concentrations
# [5] = system: acetylated core histones (H3K27ac, H2BK5ac, and H4K8ac); assay: Histone acetylation by Western blot; assay type: cell-based, human
# acetylated SMC3 = assay: Acetylated SMC3 by Western blot in MDA-MB-231 cells; assay type: cell-based, human; conditions: YX968 16 nM, 14 h
# cell cycle progression = assay: Cell cycle profiling; assay type: cell-based; conditions: 24 h
# MCF7 = assay: Colony formation assay, MCF7; assay type: cell-based, human
# T47D = assay: Colony formation assay, T47D; assay type: cell-based, human
# BT549 = assay: Colony formation assay, BT549; assay type: cell-based, human
# MDA-MB-468 = assay: Colony formation assay, MDA-MB-468; assay type: cell-based, human
# HCC1806 = assay: Colony formation assay, HCC1806; assay type: cell-based, human
# MDA-MB-231 = assay: Colony formation assay, MDA-MB-231; assay type: cell-based, human
# H1299 = assay: Colony formation assay, H1299; assay type: cell-based, human
# p21 = p21 induction by Western blot in MDA-MB-231 cells; assay type: cell-based, human; conditions: MDA-MB-231, 16 h
# BC cell lines = assay: Colony formation assays, comparison across several BC cell lines; assay type: cell-based, human; conditions: alone or in combination
# HDAC8 [6] = target: T1, HDAC8; assay: HDAC activity assay; assay type: biochemical
# [7] = q-value ≤0.05 and fold-change ≥|2.0|
# [8] = pretreatment with probe, then YX968, MDA-MB-231
# T2 sequence (Q13547 whole entry): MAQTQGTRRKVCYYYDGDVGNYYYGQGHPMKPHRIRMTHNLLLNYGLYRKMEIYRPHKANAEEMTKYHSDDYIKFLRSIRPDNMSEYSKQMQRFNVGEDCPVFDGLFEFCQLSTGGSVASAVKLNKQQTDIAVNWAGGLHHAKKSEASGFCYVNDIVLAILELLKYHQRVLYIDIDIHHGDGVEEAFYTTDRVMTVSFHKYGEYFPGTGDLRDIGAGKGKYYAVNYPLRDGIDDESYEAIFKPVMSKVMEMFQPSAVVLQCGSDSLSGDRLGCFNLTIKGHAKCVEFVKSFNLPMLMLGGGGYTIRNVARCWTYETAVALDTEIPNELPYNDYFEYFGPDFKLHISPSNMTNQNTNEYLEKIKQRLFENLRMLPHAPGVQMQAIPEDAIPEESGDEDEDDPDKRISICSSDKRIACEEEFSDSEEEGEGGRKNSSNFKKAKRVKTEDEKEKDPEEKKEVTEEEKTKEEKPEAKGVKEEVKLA
# HDAC3, sequence (O15379 whole entry): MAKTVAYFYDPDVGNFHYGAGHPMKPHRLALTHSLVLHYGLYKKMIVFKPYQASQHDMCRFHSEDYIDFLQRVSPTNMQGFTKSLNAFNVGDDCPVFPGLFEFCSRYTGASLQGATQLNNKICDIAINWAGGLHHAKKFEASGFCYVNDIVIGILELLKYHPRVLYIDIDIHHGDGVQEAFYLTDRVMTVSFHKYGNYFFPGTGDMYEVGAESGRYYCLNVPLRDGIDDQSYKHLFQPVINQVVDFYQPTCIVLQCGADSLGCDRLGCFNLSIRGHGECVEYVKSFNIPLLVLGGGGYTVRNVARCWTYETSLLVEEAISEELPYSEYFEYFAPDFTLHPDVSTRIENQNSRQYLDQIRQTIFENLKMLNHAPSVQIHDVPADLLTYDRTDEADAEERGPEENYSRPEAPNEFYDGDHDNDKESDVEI
# HDAC3, sequence (O75376 whole entry partner): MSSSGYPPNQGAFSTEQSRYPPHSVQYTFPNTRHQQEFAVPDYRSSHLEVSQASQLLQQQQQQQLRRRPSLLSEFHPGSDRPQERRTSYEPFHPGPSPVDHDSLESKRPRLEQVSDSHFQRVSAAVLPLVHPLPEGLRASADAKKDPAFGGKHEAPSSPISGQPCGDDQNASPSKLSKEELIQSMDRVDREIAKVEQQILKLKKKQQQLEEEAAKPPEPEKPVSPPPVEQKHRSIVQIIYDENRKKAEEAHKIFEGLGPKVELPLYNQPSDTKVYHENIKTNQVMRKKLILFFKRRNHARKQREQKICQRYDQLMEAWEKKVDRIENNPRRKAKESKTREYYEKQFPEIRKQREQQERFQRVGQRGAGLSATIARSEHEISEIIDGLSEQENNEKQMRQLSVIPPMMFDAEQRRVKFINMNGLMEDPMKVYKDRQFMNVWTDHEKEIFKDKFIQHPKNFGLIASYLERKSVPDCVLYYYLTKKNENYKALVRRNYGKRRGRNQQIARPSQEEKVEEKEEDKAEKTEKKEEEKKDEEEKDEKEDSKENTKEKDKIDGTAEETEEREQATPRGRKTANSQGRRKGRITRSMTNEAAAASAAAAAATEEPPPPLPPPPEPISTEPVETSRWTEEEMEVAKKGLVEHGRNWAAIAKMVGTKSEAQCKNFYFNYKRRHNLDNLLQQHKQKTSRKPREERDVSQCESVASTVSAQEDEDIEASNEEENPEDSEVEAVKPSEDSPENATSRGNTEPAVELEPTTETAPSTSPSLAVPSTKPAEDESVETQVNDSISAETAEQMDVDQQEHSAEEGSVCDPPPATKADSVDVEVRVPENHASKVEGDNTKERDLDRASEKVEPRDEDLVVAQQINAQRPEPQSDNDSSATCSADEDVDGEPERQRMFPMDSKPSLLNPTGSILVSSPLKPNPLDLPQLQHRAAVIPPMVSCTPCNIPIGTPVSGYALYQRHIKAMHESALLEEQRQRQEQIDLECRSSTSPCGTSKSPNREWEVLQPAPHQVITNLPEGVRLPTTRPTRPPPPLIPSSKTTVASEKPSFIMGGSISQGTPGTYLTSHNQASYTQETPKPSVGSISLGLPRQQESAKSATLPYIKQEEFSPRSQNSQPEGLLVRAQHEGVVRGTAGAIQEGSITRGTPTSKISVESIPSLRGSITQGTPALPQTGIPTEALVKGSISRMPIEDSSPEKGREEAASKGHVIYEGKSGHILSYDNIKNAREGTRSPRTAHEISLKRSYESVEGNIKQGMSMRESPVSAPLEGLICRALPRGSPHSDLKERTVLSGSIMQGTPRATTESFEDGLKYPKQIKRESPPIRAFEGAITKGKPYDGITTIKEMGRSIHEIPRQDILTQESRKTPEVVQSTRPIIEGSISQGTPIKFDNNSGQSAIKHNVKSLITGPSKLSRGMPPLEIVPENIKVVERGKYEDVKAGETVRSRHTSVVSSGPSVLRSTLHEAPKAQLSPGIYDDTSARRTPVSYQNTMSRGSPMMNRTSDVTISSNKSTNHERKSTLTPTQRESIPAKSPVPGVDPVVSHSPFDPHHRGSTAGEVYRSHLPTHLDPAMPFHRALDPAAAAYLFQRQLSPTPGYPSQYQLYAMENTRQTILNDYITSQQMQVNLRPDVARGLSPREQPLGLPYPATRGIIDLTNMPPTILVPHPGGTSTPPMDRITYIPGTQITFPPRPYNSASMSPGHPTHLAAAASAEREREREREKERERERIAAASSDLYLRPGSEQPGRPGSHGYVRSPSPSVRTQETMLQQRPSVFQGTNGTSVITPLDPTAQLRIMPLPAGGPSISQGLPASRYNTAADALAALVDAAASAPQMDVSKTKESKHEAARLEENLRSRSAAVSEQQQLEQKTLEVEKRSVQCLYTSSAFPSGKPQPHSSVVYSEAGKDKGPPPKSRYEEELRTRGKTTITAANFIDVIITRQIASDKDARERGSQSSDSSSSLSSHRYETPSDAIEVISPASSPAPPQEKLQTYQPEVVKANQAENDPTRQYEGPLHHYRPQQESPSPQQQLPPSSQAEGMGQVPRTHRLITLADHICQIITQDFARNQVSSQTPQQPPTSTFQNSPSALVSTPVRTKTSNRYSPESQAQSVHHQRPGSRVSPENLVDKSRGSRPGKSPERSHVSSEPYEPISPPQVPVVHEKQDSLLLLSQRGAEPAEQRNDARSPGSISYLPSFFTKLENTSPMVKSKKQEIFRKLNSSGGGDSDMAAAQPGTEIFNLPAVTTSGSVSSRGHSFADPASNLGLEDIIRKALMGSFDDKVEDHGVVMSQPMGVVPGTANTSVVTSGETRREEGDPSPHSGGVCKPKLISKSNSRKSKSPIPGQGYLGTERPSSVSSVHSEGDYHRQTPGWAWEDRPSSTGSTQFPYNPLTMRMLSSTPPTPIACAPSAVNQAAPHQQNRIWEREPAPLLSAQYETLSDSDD
# HDAC3, sequence (P40337 whole entry): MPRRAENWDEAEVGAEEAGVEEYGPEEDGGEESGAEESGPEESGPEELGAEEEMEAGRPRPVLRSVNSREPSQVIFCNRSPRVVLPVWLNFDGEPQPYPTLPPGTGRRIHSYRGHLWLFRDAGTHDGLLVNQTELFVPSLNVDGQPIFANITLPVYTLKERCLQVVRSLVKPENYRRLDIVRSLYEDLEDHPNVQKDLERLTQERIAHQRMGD
# HDAC3, sequence (Q15370 whole entry partner): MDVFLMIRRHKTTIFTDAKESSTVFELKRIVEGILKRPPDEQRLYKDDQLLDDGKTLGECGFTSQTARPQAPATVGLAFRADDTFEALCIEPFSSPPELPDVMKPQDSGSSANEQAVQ
# HDAC3, sequence (Q15369 whole entry partner): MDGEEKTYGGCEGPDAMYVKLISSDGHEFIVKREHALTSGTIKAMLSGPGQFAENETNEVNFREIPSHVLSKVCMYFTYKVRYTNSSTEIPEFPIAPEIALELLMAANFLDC
# HDAC2, sequence (Q92769 whole entry): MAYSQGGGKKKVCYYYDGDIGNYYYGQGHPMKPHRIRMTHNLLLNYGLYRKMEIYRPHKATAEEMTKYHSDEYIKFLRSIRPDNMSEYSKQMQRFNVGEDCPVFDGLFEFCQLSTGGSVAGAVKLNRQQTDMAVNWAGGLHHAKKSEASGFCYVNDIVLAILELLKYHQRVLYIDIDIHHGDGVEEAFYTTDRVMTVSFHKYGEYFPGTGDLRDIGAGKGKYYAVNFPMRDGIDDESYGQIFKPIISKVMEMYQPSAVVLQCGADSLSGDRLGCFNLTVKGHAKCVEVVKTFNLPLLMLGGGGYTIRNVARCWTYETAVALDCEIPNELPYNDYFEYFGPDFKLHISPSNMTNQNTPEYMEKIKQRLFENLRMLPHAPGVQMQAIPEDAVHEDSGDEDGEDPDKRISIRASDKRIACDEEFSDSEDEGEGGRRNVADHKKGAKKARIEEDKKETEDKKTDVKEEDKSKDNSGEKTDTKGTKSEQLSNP
# HDAC1 and the VHL complex, sequence (Q13547 whole entry, one chain of several): as the sequence (Q13547 whole entry) above
structure (smiles),measurement,setting,value
CCCCNNC(=O)c1ccc(Br)cc1 [UF010],number of downregulated genes,MDA-MB-231 cells; UF010 treatment,761
same,number of upregulated genes,MDA-MB-231 cells; UF010 treatment,"2,678"
same,number of downregulated DEGs,MDA-MB-231 cells; [7],572
same,number of upregulated DEGs,MDA-MB-231 cells; [7],"1,792"
CC(C)C[C@@H](C=O)NC(=O)[C@H](CC(C)C)NC(=O)[C@H](CC(C)C)NC(=O)OCc1ccccc1 [MG132] (Cbz-Leu-Leu-Leu-aldehyde),effect of pretreatment on YX968-mediated HDAC3 degradation,HDAC3; [8],blocked
same,effect of pretreatment on YX968-mediated HDAC3 degradation,HDAC3; probe at 3 μM,only moderately reversed
same,effect of pretreatment on YX968-mediated HDAC3 degradation,HDAC3; probe at 10 μM,more effectively rescued
same,effect of pretreatment on YX968-mediated HDAC8 degradation,HDAC8 [1]; [8],blocked
same,effect of pretreatment on YX968-mediated HDAC8 degradation,HDAC8 [1]; probe at 3 μM,effectively blocked
"CC[C@H](NC(=O)[C@H](C)NC)C(=O)N1C[C@@H](O)C[C@H]1Cc1c(-c2[nH]c3cc(F)ccc3c2C[C@@H]2C[C@H](O)CN2C(=O)[C@H](CC)NC(=O)[C@H](C)NC)[nH]c2cc(F)ccc12 [birinapant, reference compound]",CASP3 cleavage (activation),caspase 3 (CASP3),activated CASP3
Cc1cc2c(C(N)=O)cccc2n1-c1nc2c(c(NCc3ccccc3)n1)COCC2 [CB-5803],effect of pretreatment on YX968-mediated HDAC3 degradation,HDAC3,only slightly rescued
same,effect of pretreatment on YX968-mediated HDAC8 degradation,HDAC8 [1],effectively blocked
"CCCNNC(=O)c1ccc(CN2CCN(C(C)=O)CC2)cc1 [compound 16, 4-((4-acetylpiperazin-1-yl)methyl)-N′-propylbenzohydrazide]",HDAC1/3/8 inhibitory potency and selectivity,HDAC1/3/8,dramatic decline of selectivity and potency
"CCCNNC(=O)c1ccc(N2CCN(C)CC2)cc1 [compound 15, 4-(4-methylpiperazin-1-yl)-N′-propylbenzohydrazide]",HDAC1/3/8 inhibitory potency and selectivity,HDAC1/3/8,highest potency among all the new analogues
"CCCNNC(=O)c1ccc(N2CCN(CCCCCCCC(=O)N[C@H](C(=O)N3C[C@H](O)C[C@H]3C(=O)N[C@@H](C)c3ccc(-c4scnc4C)cc3)C(C)(C)C)CC2)cc1 [YX968, (2S,4R)-1-((S)-3,3-dimethyl-2-(8-(4-(4-(2-propylhydrazine-1-carbonyl)phenyl)piperazin-1-yl)octanamido)butanoyl)-4-hydroxy-N-((S)-1-(4-(4-methylthiazol-5-yl)phenyl)ethyl)pyrrolidine-2-carboxamide]",IC50,HDAC1 [2],591 nM
same,effect on HDAC1 protein level,HDAC1 [3],did not affect; also recorded: not degraded
same,effect on HDAC2 protein level,HDAC2,did not affect; also recorded: not degraded
same,ternary complex formation with HDAC1,[4],not able to induce a complex
same,number of downregulated genes,MDA-MB-231 cells; 50 nM,41
same,number of upregulated genes,MDA-MB-231 cells; 50 nM,53
same,significant DEGs,MDA-MB-231 cells; [7],no significant DEGs
same,levels of acetylated core histones,[5]; MCF-7 and MDA-MB-231 cells,dose-dependently increased
same,concentration at which H3K27ac was weakly detectable,"[5]; MDA-MB-231, 16 h",63 nM
same,levels of acetylated SMC3,acetylated SMC3,increased
same,effect on cell cycle,cell cycle progression; 0.1 μM,negligibly perturbed; also recorded: did not alter cell cycle
same,effect on cell cycle,cell cycle progression; 1 μM,strong G1 arrest; also recorded: markedly induced G1 arrest
same,concentration at which clonogenic growth was effectively inhibited,MCF7,125 nM
same,concentration at which clonogenic growth was effectively inhibited,T47D,125 nM
same,concentration at which clonogenic growth was effectively inhibited,BT549,125 nM
same,concentration at which clonogenic growth was effectively inhibited,MDA-MB-468,125 nM
same,concentration at which clonogenic growth was effectively inhibited,HCC1806,125 nM
same,clonogenic growth suppression,MDA-MB-231; MDA-MB-231,effectively suppressed at a sub-μM concentration
same,clonogenic growth sensitivity,H1299,quite resistant
same,CASP3 cleavage (activation),caspase 3 (CASP3),in a dose-dependent manner
same,concentration at which weak CASP3 activation was notable,caspase 3 (CASP3),63 nM
same,concentration at which weak p21 induction was seen,p21,250 nM
Nc1cc(F)ccc1NC(=O)/C=C/c1cnn(C/C=C/c2ccccc2)c1 [RGFP-966],potency to suppress cell growth vs YX968,BC cell lines,less potent than YX968
"CCCNNC(=O)c1ccc(N2CCN(C(C)=O)CC2)cc1 [compound 14, 4-(4-acetylpiperazin-1-yl)-N′-propylbenzohydrazide]",fold less potent than 15 for the three HDAC isozymes,"HDAC1/3/8; HDAC1, HDAC3, HDAC8",3- to 7 fold
same,HDAC1/3/8 inhibitory potency and selectivity,HDAC1/3/8,preferentially inhibited HDAC3
"CCCNNC(=O)c1ccc(-c2ccc(NC(=O)CCCCCCC(=O)N[C@H](C(=O)N3C[C@H](O)C[C@H]3C(=O)N[C@@H](C)c3ccc(-c4scnc4C)cc3)C(C)(C)C)cc2)cc1 [XZ9002, reference compound]",IC50,HDAC8 [6],1090 nM
same,inhibition of clonogenic growth,"MDA-MB-231; MDA-MB-231, 3 μM",moderate inhibition
CC(=O)N[C@H](C(=O)N1C[C@H](O)C[C@H]1C(=O)NCc1ccc(-c2scnc2C)cc1)C(C)(C)C [VH032],effect of pretreatment on YX968-mediated HDAC8 degradation,HDAC8 [1]; [8],effectively competed
COc1ccc(Cn2ccc3ccc(C(=O)NO)cc32)cc1 [PCI 34051],potency to suppress cell growth vs YX968,BC cell lines,less potent than YX968
NS(=O)(=O)OC[C@@H]1C[C@@H](n2ccc3c(N[C@H]4CCc5ccccc54)ncnc32)C[C@@H]1O [MLN4924],effect of pretreatment on YX968-mediated HDAC3 degradation,HDAC3; [8],highly effective in blocking
same,effect of pretreatment on YX968-mediated HDAC8 degradation,HDAC8 [1]; [8],highly effective in blocking
CC(C)C[C@H](NC(=O)[C@H](Cc1ccccc1)NC(=O)c1cnccn1)B(O)O [bortezomib],effect of pretreatment on YX968-mediated HDAC3 degradation,HDAC3; [8],could also reverse
